Data reported in ChEMBL document CHEMBL1131612, “6-Amino-2-(4-fluorophenyl)-4-methoxy-3- (4-pyridyl)-1H-pyrrolo[2, 3-b]pyridine (RWJ 68354): a potent and selective p38 kinase inhibitor” (J Med Chem, 1998).

How the values were obtained:
[1] = molecular target: cAMP-dependent protein kinase (PKA) (Homo sapiens) (UniProt P22694+P17612+P22612); assay: Inhibition of Protein kinase A at 5 uM; assay type: protein assay
[2] = molecular target: Proto-oncogene tyrosine-protein kinase Src (Homo sapiens) (UniProt P12931); assay: Inhibition of c-Src tyrosine kinase at 5 uM
[3] = test system: PBMC; assay: cells; settings: Homo sapiens
Description: Inhibition of LPS-stimulated TH+NF-alphs production by human peripheral blood mononuclear cells (PBMCs)

[4] = molecular target: Mitogen-activated protein kinase 1 (Homo sapiens) (UniProt P28482); assay: Inhibition of Mitogen-activated protein kinase 1 (ERK-2 enzyme) at 10 uM
[5] = Percent inhibition of LPS-stimulated TNF-alpha release in fasted BALB/cJ mice at 10 mg/kg; assay type: functional; settings: Mus musculus
[6] = Percent inhibition of LPS-stimulated TNF-alpha release in fasted BALB/cJ mice at 25 mg/kg; assay type: functional; settings: Mus musculus
[7] = molecular target: T1, Prostaglandin G/H synthase 1 (Homo sapiens, UniProt P23219); assay: Inhibition of Prostaglandin G/H synthase 1 at 5 uM (Inactive)
[8] = molecular target: T1, Prostaglandin G/H synthase 1; assay: Inhibition of Prostaglandin G/H synthase 1 at 5 uM
[9] = animal or person; settings: Mus musculus, read-out: Inhibition
[10] = animal or person; settings: Mus musculus, read-out: Inhibition; remark: listed apart in the source
[11] = test system: PBMC; assay: cells; assay type: functional, cell-based; settings: Homo sapiens

Mitogen-activated protein kinase 1 (Homo sapiens), sequence (P28482 whole entry): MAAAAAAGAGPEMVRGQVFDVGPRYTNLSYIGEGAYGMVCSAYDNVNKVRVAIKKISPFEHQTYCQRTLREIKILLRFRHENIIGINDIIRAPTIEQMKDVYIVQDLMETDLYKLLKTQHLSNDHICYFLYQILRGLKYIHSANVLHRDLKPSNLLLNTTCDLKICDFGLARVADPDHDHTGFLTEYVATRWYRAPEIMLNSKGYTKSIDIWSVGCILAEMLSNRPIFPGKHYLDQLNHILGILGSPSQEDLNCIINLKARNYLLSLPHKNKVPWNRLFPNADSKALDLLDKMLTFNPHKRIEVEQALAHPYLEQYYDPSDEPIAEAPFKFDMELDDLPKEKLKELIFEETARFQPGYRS
T1 sequence (P23219 whole entry): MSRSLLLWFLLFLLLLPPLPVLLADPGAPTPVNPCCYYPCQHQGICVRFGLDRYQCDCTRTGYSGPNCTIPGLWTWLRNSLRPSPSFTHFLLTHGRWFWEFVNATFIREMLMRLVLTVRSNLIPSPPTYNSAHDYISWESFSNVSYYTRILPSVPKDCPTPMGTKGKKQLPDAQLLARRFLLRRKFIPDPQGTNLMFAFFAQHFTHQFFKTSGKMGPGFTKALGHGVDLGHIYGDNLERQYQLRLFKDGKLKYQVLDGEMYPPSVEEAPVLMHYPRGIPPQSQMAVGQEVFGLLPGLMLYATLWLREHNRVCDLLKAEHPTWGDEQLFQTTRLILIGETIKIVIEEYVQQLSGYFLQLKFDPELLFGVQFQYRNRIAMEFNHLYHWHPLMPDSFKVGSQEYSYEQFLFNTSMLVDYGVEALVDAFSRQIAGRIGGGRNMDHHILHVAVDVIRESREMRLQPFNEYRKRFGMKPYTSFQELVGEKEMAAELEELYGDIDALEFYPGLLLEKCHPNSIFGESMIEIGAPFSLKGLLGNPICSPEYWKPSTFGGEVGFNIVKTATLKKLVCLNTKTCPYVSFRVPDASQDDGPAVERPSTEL
Proto-oncogene tyrosine-protein kinase Src (Homo sapiens), sequence (P12931 2-536 limits assumed): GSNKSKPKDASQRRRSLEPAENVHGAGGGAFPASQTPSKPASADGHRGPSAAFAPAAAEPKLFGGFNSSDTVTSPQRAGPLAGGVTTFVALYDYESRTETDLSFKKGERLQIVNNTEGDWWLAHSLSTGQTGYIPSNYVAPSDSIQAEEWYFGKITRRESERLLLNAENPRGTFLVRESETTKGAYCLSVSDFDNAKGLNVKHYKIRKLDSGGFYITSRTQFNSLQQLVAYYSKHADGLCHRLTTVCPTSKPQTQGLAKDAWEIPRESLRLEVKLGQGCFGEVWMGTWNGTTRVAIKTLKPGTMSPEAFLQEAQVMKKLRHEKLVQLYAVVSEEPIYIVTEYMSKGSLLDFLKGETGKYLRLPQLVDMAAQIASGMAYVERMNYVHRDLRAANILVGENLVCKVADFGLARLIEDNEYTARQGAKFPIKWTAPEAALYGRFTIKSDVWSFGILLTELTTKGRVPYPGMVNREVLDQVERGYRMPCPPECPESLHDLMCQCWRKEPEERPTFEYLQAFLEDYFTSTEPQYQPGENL

SMILES | inhibition [1] [%] | inhibition [2] [%] | IC50 [3] [nM] | inhibition [4] [%] | inhibition in vivo at 10 mg/kg [5] [%] | inhibition in vivo at 25 mg/kg [6] [%] | IC50 [7] | IC50 [8] [nM] | inhibition in vivo at 25 mg/kg [9] [%] | inhibition in vivo at 10 mg/kg [10] [%] | IC50 [11] [nM]
COc1cccc(COc2cc(N)[nH]c3nc(-c4ccc(F)cc4)c(-c4ccncc4)c2-3)c1 | 0 | 58 | 1.5 | – | – | – | – | – | – | – | –
C[S+]([O-])c1ccc(-c2nc(-c3ccc(F)cc3)c(-c3ccncc3)[nH]2)cc1 (stereo not drawn) [SB-203580] | 0 | 54 | – | 22 | 33 | 83 | – | – | – | – | –
Nc1cc(OCc2ccccc2)c2c(-c3ccncc3)c(-c3ccc(F)cc3)[nH]c2n1 | 0 | 19 | 0.91 | – | 11 | 86 | Not Active | – | – | – | –
C[S+]([O-])c1ccc(-c2nc(-c3ccncc3)c(-c3ccc(F)cc3)[nH]2)cc1 (stereo not drawn) [SB-203580] | – | – | – | – | – | – | – | > 5000 | – | – | –
CCCCOc1cc(N)[nH]c2nc(-c3ccc(F)cc3)c(-c3ccncc3)c1-2 | 0 | 18 | 4 | – | 27 | 71 | Not Active | – | – | – | –
COc1cc(N)[nH]c2nc(-c3ccc(F)cc3)c(-c3ccncc3)c1-2 | 0 | 43 | – | 23 | – | – | Not Active | – | 99 | 85 | –
Nc1cc(OCCCc2ccccc2)c2c(-c3ccncc3)c(-c3ccc(F)cc3)[nH]c2n1 | 0 | 3 | 9 | – | – | – | – | – | – | – | –
Nc1ccc2c(-c3ccncc3)c(-c3ccc(F)cc3)[nH]c2n1 | 16 | 63 | 37 | 0 | 73 | 98 | Not Active | – | – | – | 450
